Experiment [1] concerns DOHH2 cells. The experiment is described as follows: Cell proliferation assay (MTS), DOHH2 cells, 120 h. Type of experiment: cell-based. An outline of the steps:
(§1)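 Treatment lasts 72 h for RS4;11 and 120 h for DOHH2 cells seeded at 5000 per well in serum-containing RPMI-1640. A 2 h MTS step, halted with 10% SDS, precedes dual-wavelength absorbance reading and IC50 fitting.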

The test system of experiment [2] is RS4;11 cells. As to the kind of experiment: Cell proliferation assay (MTS), RS4;11 cells, 72 h. Type of experiment: cell-based. An outline of the steps: as §1

Like-named read-outs stand apart in the source and are kept apart here.

The IC50 is the midpoint of a concentration-inhibition curve. A low value points to greater potency.

In the case of `CC1(C)CCC(CN2CCN(c3ccc(C(=O)NS(=O)(=O)c4cc5c(c([N+](=O)[O-])c4)N[C@H](CN4C[C@@H]6C[C@H]4CO6)CO5)c(-n4ncc5nc6[nH]ccc6cc54)c3)CC2)=C(c2ccc(Cl)cc2)C1` [Example 6-1, N—(((R)-3-(((1S,4S)-2-oxa-5-azabicyclo[2.2.1]heptan-5-yl)methyl)-5-nitro-3,4-dihydro-2H-benzo[b][1,4]oxazin-7-yl)sulfonyl)-4-(4-((4′-chloro-5,5-dimethyl-3,4,5,6-tetrahydro-[1,1′-biphenyl]-2-yl)methyl)piperazin-1-yl)-2-(pyrazolo[4,3-b]pyrrolo[3,2-e]pyridin-1(5H)-yl)benzamide], the IC50 was 73 nM in experiment [1] (Homo sapiens, DOHH-2, 120 h) and 2 nM in experiment [2] (Homo sapiens, RS4-11, 72 h).
For `CN1CCN(C[C@H]2CNc3cc(S(=O)(=O)NC(=O)c4ccc(N5CCN(CC6=C(c7ccc(Cl)cc7)CC(C)(C)CC6)CC5)cc4Oc4cnc5[nH]ccc5c4)cc([N+](=O)[O-])c3N2)CC1` [Example 4-3, (R)-2-((1H-pyrrolo[2,3-b]pyridin-5-yl)oxy)-4-(4-((4′-chloro-5,5-dimethyl-3,4,5,6-tetra-hydro-[1,1′-biphenyl]-2-yl)methyl)piperazin-1-yl)-N-((2-((4-methylpiperazin-1-yl)methyl)-8-nitro-1,2,3,4-tetrahydroquinoxalin-6-yl)sulfonyl)benzamide] the same measures were 38 nM and 46 nM.
The matching figures for `CC1(C)CCC(CN2CCN(c3ccc(C(=O)NS(=O)(=O)c4cc5c(c([N+](=O)[O-])c4)N[C@H](CN4C[C@H]6C[C@@H]4CO6)CO5)c(Oc4cnc5[nH]ccc5c4)c3)CC2)=C(c2ccc(Cl)cc2)C1` [Example 2-83, 2-((1H-pyrrolo[2,3-b]pyridin-5-yl)oxy)-N-(((R)-3-(((1R,4R)-2-oxa-5-azabicyclo[2.2.1]heptan-5-yl)methyl)-5-nitro-3,4-dihydro-2H-benzo[b][1,4]oxazin-7-yl)sulfonyl)-4-(4-((4′-chloro-5,5-dimethyl-3,4,5,6-tetrahydro-[1,1′-biphenyl]-2-yl)methyl)piperazin-1-yl) benzamide]: 13 nM and 1 nM.
For `CC1(C)CCC(CN2CCN(c3ccc(C(=O)NS(=O)(=O)c4cc5c(c([N+](=O)[O-])c4)N[C@@H](CCO)CS5)c(Oc4cnc5[nH]ccc5c4)c3)CC2)=C(c2ccc(Cl)cc2)C1` [Example 3-15, (S)-2-((1H-pyrrolo[2,3-b]pyridin-5-yl)oxy)-4-(4-((4′-chloro-5,5-dimethyl-3,4,5,6-tetra-hydro-[1,1′-biphenyl]-2-yl)methyl)piperazin-1-yl)-N-((3-(2-hydroxyethyl)-5-nitro-3,4-dihydro-2H-benzo[b][1,4]thiazin-7-yl)sulfonyl) benzamide] the same measures were 48 nM and 13 nM.
As to `C[C@@H]1CN(CC[C@H]2COc3cc(S(=O)(=O)NC(=O)c4ccc(N5CCN(CC6=C(c7ccc(Cl)cc7)CC(C)(C)CC6)CC5)cc4Oc4cnc5[nH]ccc5c4)cc([N+](=O)[O-])c3N2)CCN1C` [Example 2-46, 2-((1H-pyrrolo[2,3-b]pyridin-5-yl)oxy)-4-(4-((4′-chloro-5,5-dimethyl-3,4,5,6-tetrahydro-[1,1′-biphenyl]-2-yl)methyl)piperazin-1-yl)-N-(((S)-3-(2-((R)-3,4-dimethylpiperazin-1-yl)ethyl)-5-nitro-3,4-dihydro-2H-benzo [b][1,4]oxazin-7-yl)sulfonyl)benzamide], the IC50 in experiment [1] (Homo sapiens, DOHH-2, 120 h) was 7 nM; in experiment [2] (Homo sapiens, RS4-11, 72 h) it was 1 nM.
The matching figures for `CC1(C)CCC(CN2CCN(c3ccc(C(=O)NS(=O)(=O)c4cc5c(c([N+](=O)[O-])c4)N[C@H](CCNS(C)(=O)=O)CO5)c(Oc4cnc5[nH]ccc5c4)c3)CC2)=C(c2ccc(Cl)cc2)C1` [Example 2-68, (R)-2-((1H-pyrrolo[2,3-b]pyridin-5-yl)oxy)-4-(4-((4′-chloro-5,5-dimethyl-3,4,5,6-tetra-hydro-[1,1′-biphenyl]-2-yl)methyl)piperazin-1-yl)-N-((3-(2-(methysulfonamido)ethyl)-5-nitro-3,4-dihydro-2H-benzo[b][1,4]oxa-zin-7-yl)sulfonyl)benzamide]: 83 nM and 26 nM.
Consider `COCC[C@H]1COc2cc(S(=O)(=O)NC(=O)c3ccc(N4CCN(CC5=C(c6ccc(Cl)cc6)CC(C)(C)CC5)CC4)cc3Oc3cnc4[nH]ccc4c3)cc([N+](=O)[O-])c2N1` [Example 2-118, (S)-2-((1H-pyrrolo[2,3-b]pyridin-5-yl)oxy)-4-(4-((4′-chloro-5,5-dimethyl-3,4,5,6-tetra-hydro-[1,1′-biphenyl]-2-yl)methyl)piperazin-1-yl)-N-((3-(2-methoxyethyl)-5-nitro-3,4-dihydro-2H-benzo[b][1,4]oxazin-7-yl)sulfonyl)benzamide], for which the IC50 in experiment [1] (Homo sapiens, DOHH-2, 120 h) amounted to 649 nM; in experiment [2] (Homo sapiens, RS4-11, 72 h), 11 nM.
The matching figures for `CC(=O)N1CCC(C[C@H]2COc3cc(S(=O)(=O)NC(=O)c4ccc(N5CCN(CC6=C(c7ccc(Cl)cc7)CC(C)(C)CC6)CC5)cc4Oc4cnc5[nH]ccc5c4)cc([N+](=O)[O-])c3N2)CC1` [Example 2-194, (S)-2-((1H-pyrrolo[2,3-b]pyridin-5-yl)oxy)-N-((3-((1-acetylpiperidin-4-yl)methyl)-5-nitro-3,4-dihydro-2H-benzo[b][1,4]oxazin-7-yl)sulfonyl)-4-(4-((4′-chloro-5,5-dimethyl-3,4,5,6-tetrahydro-[1,1′-biphenyl]-2-yl)meth-yl)piperazin-1-yl)benzamide]: 74 nM and 5 nM.
Regarding `CC1(C)CCC(CN2CCN(c3ccc(C(=O)NS(=O)(=O)c4cc5c(c([N+](=O)[O-])c4)N[C@H](CO)CS5)c(Oc4cnc5[nH]ccc5c4)c3)CC2)=C(c2ccc(Cl)cc2)C1` [Example 3-5, (R)-2-((1H-pyrrolo[2,3-b]pyridin-5-yl)oxy)-4-(4-((4′-chloro-5,5-dimethyl-3,4,5,6-tetra-hydro-[1,1′-biphenyl]-2-yl)methyl)piperazin-1-yl)-N-((3-(hydroxymethyl)-5-nitro-3,4-dihydro-2H-benzo[b][1,4]thiazin-7-yl)sulfonyl) benzamide], the IC50 in experiment [1] (Homo sapiens, DOHH-2, 120 h) is 12 nM; in experiment [2] (Homo sapiens, RS4-11, 72 h), 8 nM.
Regarding `CC1(C)CCC(CN2CCN(c3ccc(C(=O)NS(=O)(=O)c4cc5c(c([N+](=O)[O-])c4)N[C@H](CN4CCN(S(C)(=O)=O)CC4)CO5)c(Oc4cnc5[nH]ccc5c4)c3)CC2)=C(c2ccc(Cl)cc2)C1` [Example 2-90, (R)-2-((1H-pyrrolo[2,3-b]pyridin-5-yl)oxy)-4-(4-((4′-chloro-5,5-dimethyl-3,4,5,6-tetra-hydro-[1,1′-biphenyl]-2-yl)methyl)piperazin-1-yl)-N-((3-((4-(methylsulfonyl)piperazin-1-yl)methyl)-5-nitro-3,4-dihdyro-2H-ben-zo[b][1,4]oxazin-7-yl)sulfonyl)benzamide], the IC50 in experiment [1] (Homo sapiens, DOHH-2, 120 h) was found to be 22 nM; in experiment [2] (Homo sapiens, RS4-11, 72 h), 8 nM.
For `CC1(C)CCC(CN2CCN(c3ccc(C(=O)NS(=O)(=O)c4cc5c(c([N+](=O)[O-])c4)N[C@@H](CCO)C5)c(Oc4cnc5[nH]ccc5c4)c3)CC2)=C(c2ccc(Cl)cc2)C1` [Example 1-19, (R)-2-((1H-pyrrolo[2,3-b]pyridin-5-yl)oxy)-4-(4-((4′-chloro-5,5-dimethyl-3,4,5,6-tetra-hydro-[1,1′-biphenyl]-2-yl)methyl)piperazin-1-yl)-N-((2-(2-hydroxyethyl)-7-nitro-indolin-5-yl)sulfonyl)benzamide] the same measures were 96 nM and 93 nM.
The matching figures for `CN1CCN(C[C@@H]2COc3cc(S(=O)(=O)NC(=O)c4ccc(N5CCN(CC6=C(c7ccc(Cl)cc7)CC(C)(C)CC6)CC5)cc4Oc4cnc5[nH]ccc5c4)cc([N+](=O)[O-])c3O2)CC1` [Example 5-4]: 13 nM and 34 nM.
The matching figures for `C[C@H]1CN(CC[C@H]2COc3cc(S(=O)(=O)NC(=O)c4ccc(N5CCN(CC6=C(c7ccc(Cl)cc7)CC(C)(C)CC6)CC5)cc4Oc4cnc5[nH]ccc5c4)cc([N+](=O)[O-])c3N2)CCN1C` [Example 2-47, 2-((1H-pyrrolo[2,3-b]pyridin-5-yl)oxy)-4-(4-((4′-chloro-5,5-dimethyl-3,4,5,6-tetrahydro-[1,1′-biphenyl]-2-yl)methyl)piperazin-1-yl)-N-(((S)-3-(2-((S)-3,4-dimethylpiperazin-1-yl)ethyl)-5-nitro-3,4-dihydro-2H-benzo [b][1,4]oxazin-7-yl)sulfonyl)benzamide]: 12 nM and 22 nM.
As for `C[C@@H]1COCCN1C[C@@H]1COc2cc(S(=O)(=O)NC(=O)c3ccc(N4CCN(CC5=C(c6ccc(Cl)cc6)CC(C)(C)CC5)CC4)cc3Oc3cnc4[nH]ccc4c3)cc([N+](=O)[O-])c2N1` [Example 2-81, 2-((1H-pyrrolo[2,3-b]pyridin-5-yl)oxy)-4-(4-((4′-chloro-5,5-dimethyl-3,4,5,6-tetra-hydro-[1,1′-biphenyl]-2-yl)methyl)piperazin-1-yl)-N-(((R)-3-(((R)-3-methylmorpholino)meth-yl)-5-nitro-3,4-dihydro-2H-benzo[b][1,4]oxazin-7-yl)sulfonyl)benzamide], the IC50 in experiment [1] (Homo sapiens, DOHH-2, 120 h) is 14 nM; in experiment [2] (Homo sapiens, RS4-11, 72 h) it was 3 nM.
In the case of `COC1CCC([C@H]2COc3cc(S(=O)(=O)NC(=O)c4ccc(N5CCN(CC6=C(c7ccc(Cl)cc7)CC(C)(C)CC6)CC5)cc4Oc4cnc5[nH]ccc5c4)cc([N+](=O)[O-])c3N2)CC1` (some centres unmarked) [Example 2-247A], the IC50 turned out to be 19 nM in experiment [1] (Homo sapiens, DOHH-2, 120 h) and 24 nM in experiment [2] (Homo sapiens, RS4-11, 72 h).
For `COC1CCC([C@@H]2COc3cc(S(=O)(=O)NC(=O)c4ccc(N5CCN(CC6=C(c7ccc(Cl)cc7)CC(C)(C)CC6)CC5)cc4Oc4cnc5[nH]ccc5c4)cc([N+](=O)[O-])c3N2)CC1` (stereo partly drawn) [Example 2-248B, (R)-2-((1H-pyrrolo[2,3-b]pyridin-5-yl)oxy)-4-(4-((4′-chloro-5,5-dimethyl-3,4,5,6-tetra-hydro-[1,1′-biphenyl]-2-yl)methyl)piperazin-1-yl)-N-((3-(4-methoxycyclohexyl)-5-nitro-3,4-dihydro-2H-benzo[b][1,4]oxazin-7-yl)sulfonyl)benzamide], the IC50 in experiment [1] worked out at 14 nM; in experiment [2], 64 nM.

Source of the values: patent publication US11091478B2 (Fochon Pharmaceuticals, Ltd., priority 2017, dated 2021).
